In patent publication US4540699A, “N-Substituted pyridinones having histamine H2 -antagonist activity” (Smith Kline & French Laboratories Limited, priority 1982, dated 1985):

Test system: histamine H2 -receptors
Assay: inhibition of histamine-stimulated gastric acid secretion in urethane-anaesthetised rats after intraduodenal and intravenous injection
Type: in vivo, rat
Settings: ratio intraduodenal/intravenous dose for 50% inhibition; rats anaesthetised with urethane
Experimental: The inhibition of histamine-stimulated secretion of gastric acid in rats anaesthetised with urethane was measured after administration of test compounds by intraduodenal injection and intravenous injection. For the compound of Example 2 the intraduodenal dose required to produce 50% inhibition was only 3 times the intravenous dose required to produce a similar effect, and for the compound of Example 10 the intraduodenal dose required was 10 times the intravenous dose. In contrast the compound of Example 7 of EP-A-3677 required an intraduodenal dose 500 times that of the intravenous dose required to inhibit acid secretion by 50%. Good activity after intraduodenal injection is indicative that there will good activity after oral administration.

SMILES | intraduodenal dose required to produce 50% inhibition of acid secretion relative to the intravenous dose
CN(C)Cc1ccc(CSCCNc2ncc(Cc3ccn(C)c(=O)c3)c(=O)[nH]2)o1 [Example 2, 2-[2-(2-Dimethylaminomethyl-5-furylmethylthio)ethylamino]-5-(1-methyl-2-oxopyridin-4-ylmethyl)pyrimidin-4-one] | 3 times
Cn1ccc(Cc2cnc(NCCCOc3cccc(CN4CCCCC4)c3)[nH]c2=O)cc1=O [Example 10, 2-[3-[3-(Piperidinomethyl)phenoxy]propylamino]-5-(1-methyl-2-oxopyridin-4-ylmethyl)pyrimidin-4-one] | 10 times
